Data from patent US5190922A (priority 1991, dated 1993).
Non-standard residues stand in square brackets, D forms with d. Residues, ends and D or L forms follow the SMILES beside them. *: point of attachment. Butanoyl(3S-Ph) = C[C@@H](CC(=O)*)c1ccccc1; Cha = N[C@@H](CC1CCCCC1)C(=O)O; dCha = N[C@H](CC1CCCCC1)C(=O)O; X9 = CC[C@H](C(=O)*)c1ccccc1; X7 = O=C(C(CO)c1ccccc1)*

Molecular target: T1, C5a Receptor (Homo sapiens, UniProt P21730)
T1 construct: 2.5-25 μg/mL of purified PMNL membrane fragments; from tissue; host or cells: polymorphonuclear leukocyte (PMNL) membrane fragments
T1 sequence (P21730 1-350): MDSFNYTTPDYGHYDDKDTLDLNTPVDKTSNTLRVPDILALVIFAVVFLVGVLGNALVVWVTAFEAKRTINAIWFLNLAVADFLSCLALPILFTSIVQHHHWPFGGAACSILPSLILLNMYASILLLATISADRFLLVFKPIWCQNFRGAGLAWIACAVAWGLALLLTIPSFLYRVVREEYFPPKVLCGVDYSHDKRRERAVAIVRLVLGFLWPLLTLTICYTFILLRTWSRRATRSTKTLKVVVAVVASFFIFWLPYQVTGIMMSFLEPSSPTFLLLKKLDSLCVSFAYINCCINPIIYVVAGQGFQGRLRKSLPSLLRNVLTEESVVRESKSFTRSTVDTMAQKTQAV
Assay: Anaphylatoxin receptor binding Ki determination (inhibition of 125I-C5a binding to PMNL membrane fragments)
Conditions: 0.03-1 nM 125I-C5a, 2.5-25 μg/mL purified PMNL membrane fragments, filtration; read-out: Ki (In vitro C5a Receptor Binding Potency)
Procedure: Specific inhibition of C5 a binding activity of representative compounds of the present invention was measured using 0.03-1 nM ^125 I-C5 a with 2.5-25 μg/mL of purified PMNL membrane fragments (Borregaard, N.; Heiple, J. M.; Simons, E. R.; and Clark, R. A. J. Cell. Biol. 1983, 97, 52-61.). Free and membrane-bound ligand were separated by filtration.

Row | Compound | Ki
1 | N=C(N)NCCC[C@@H](NC(=O)[C@H](Cc1ccccc1)NC(=O)[C@@H](CC1CCCCC1)NC(=O)[C@@H]1CCCN1C(=O)[C@H](CCCCN)NC(=O)C(CO)c1ccccc1)C(=O)O (stereo partly drawn) [Example 8, {(2R/S)-2-Hydroxymethyl-2-phenylacetyl}-Lysyl-Prolyl-{(2R)-2-Amino-3-cyclohexylpropanoyl}-Phenylalanyl-DArginyl-OH] (X7-KP[dCha]F[dR]-OH) | 6.2 µM
2 | C[C@@H](CC(=O)N[C@@H](CCCCN)C(=O)N1CCC[C@H]1C(=O)N[C@H](CC1CCCCC1)C(=O)N[C@@H](CC1CCCCC1)C(=O)N[C@H](CCCNC(=N)N)C(=O)O)c1ccccc1 [Example 57, {S(+)-3-Phenylbutyryl}-Lysyl-Prolyl-{(2R)-2-Amino-3-cyclohexylpropanoyl}-{(2S)-2-Amino-3-cyclohexylpropanoyl}-DArginyl-OH] ({Butanoyl(3S-Ph)}-KP[dCha][Cha][dR]-OH) | 0.027 µM
3 | CC[C@H](C(=O)N[C@@H](CCCCN)C(=O)N1CCC[C@H]1C(=O)N[C@H](CC1CCCCC1)C(=O)N[C@@H](CC1CCCCC1)C(=O)N[C@H](CCCNC(=N)N)C(=O)O)c1ccccc1 [Example 2, (S)-(+)-2-phenylbutyryl-Lysyl-Prolyl-{(2R)-2-Amino-3-cyclohexylpropanoyl}-{(2S)-2-Amino-3-cyclohexylpropanoyl}-DArginyl-OH] (X9-KP[dCha][Cha][dR]-OH) | 0.014 µM
